Experimental data: PMC4226840, “An open-label study to determine the maximum tolerated dose of the multitargeted tyrosine kinase inhibitor CEP-11981 in patients with advanced cancer” (Investigational New Drugs, 2014)

Assays:
[1] = tested on: advanced, relapsed/refractory solid tumors; assay: Tumor response (RECIST) in phase I patients; format: in vivo, human
Text: (§1) The primary measures were MTD and DLTs. MTD was defined as the highest dose at which one-third or fewer of patients in a cohort experienced a DLT, which included grade ≥ 2 proteinuria, grade ≥ 3 nonhematologic toxicity (excluding hypertension and pain), grade ≥ 3 thrombocytopenia with bleeding, or grade 4 hematologic toxicity that was not clearly due to progressive cancer. Secondary measures included the pharmacokinetics of CEP-11981 after a single dose and multiple doses, the pharmacokinetic-pharmacodynamic profile of CEP-11981, safety, and preliminary efficacy. The efficacy endpoint was the proportion of patients who achieved complete or partial response on study (minimum of 6 weeks) according to Response Evaluation Criteria in Solid Tumors (RECIST) guidelines.

VEGFR-2/KDR = assay: Ex vivo bioassay of cellular VEGFR-2/KDR kinase inhibition with patient plasma in TrkA-VEGFR-2/KDR chimeric PAE cells; format: cell-based
Protocol: Pharmacokinetic parameters calculated after a single dose of CEP-11981 included area under the plasma drug concentration versus time curve (AUC) from zero to infinity (AUC0-∞), to the last measurable concentration (AUC0-t), and to 24 h (AUC0–24); maximum observed plasma drug concentration (Cmax); time to maximum observed plasma drug concentration (Tmax); terminal elimination half-life (t½); and predicted accumulation ratio (Rpred), which was defined as AUC0–∞ (day 1, cycle 1)/AUC0–24 (day 1, cycle 1). Pharmacokinetic parameters calculated after multiple doses included AUC0-t, Cmax, Tmax, and t½, and observed accumulation ratio (Robs). Robs was defined as AUC for 1 dosing interval following multiple doses (AUCτ; day 15, cycle 1)/AUC0–24 (day 1, cycle 1). […] Pharmacodynamics was assessed by VEGFR-2/KDR inhibitory activity in response to CEP-11981 treatment.
The venous blood samples for pharmacokinetic analysis were collected on days 1 and 15 of dosing during cycle 1 immediately before dose administration and at 0.5, 1, 1.5, 2, 3, 4, 6, 8, 12 (this sample was optional and could be collected from 10 to 14 h), and 24 h postdose, as well as on days 8, 22, 29, and 43. The venous blood samples for pharmacokinetic-pharmacodynamic analysis were collected on days 1 and 15 of dosing during cycle 1 immediately before dose administration and at 1 h postdose, and on day 43. At each draw, 2 samples were obtained in 6-mL sodium heparinized vacutainers. Plasma was obtained and stored at −70 °C until shipment to the sponsor for analysis.
A bioassay with engineered chimeric porcine aortic endothelial (PAE) cell lines stably expressing a TrkA-VEGFR-2/KDR domain was used to evaluate human plasma-associated shifts in cellular IC50 for CEP-11981 inhibition of ligand-stimulated VEGFR-2/KDR phosphorylation. Plasma samples for the bioassay were obtained 1 h postdose and on days 1 and 15; they were collected from patients across cohorts.

[2] = Phase I dose escalation: MTD and DLTs; format: in vivo, human
Protocol: This was an open-label, nonrandomized, multicenter, dose-escalation phase I study of CEP-11981 in patients with advanced, relapsed/refractory solid tumors. The study was conducted in accordance with Good Clinical Practice: Consolidated Guidance approved by the International Conference on Harmonisation, and applicable national and local laws and regulations and approved by appropriate Independent Ethics Committees or Institutional Review Boards. All patients provided written consent before study procedures or assessments were performed.
as §1
Oral CEP-11981 was administered once daily for the first 28 days of each 42-day cycle. Initial dose escalation from the starting dose of 3 mg/m^2 was by 40 % increments. After completion of additional toxicology studies and the preliminary analysis of plasma exposure in patients, the dose for the fourth cohort was doubled from the third cohort and thereafter the escalation followed a modified Fibonacci sequence. The final dose levels were: 3.0, 4.2, 5.9, 11.8, 19.7, 29.6, 41.4, 55.0, 73.0, 97.4, and 126.6 mg/m^2. The dose administered was rounded to the smallest capsule strength available. Dosing for a patient was to be stopped at the onset of a DLT and, at resolution within 14 days, could be resumed at a dose equal to 50 % of the patient’s current dose. […]

[3] = of 37 patients evaluated for tumor response

VEGFR-2/KDR, sequence (P35968 786-1356 limits assumed): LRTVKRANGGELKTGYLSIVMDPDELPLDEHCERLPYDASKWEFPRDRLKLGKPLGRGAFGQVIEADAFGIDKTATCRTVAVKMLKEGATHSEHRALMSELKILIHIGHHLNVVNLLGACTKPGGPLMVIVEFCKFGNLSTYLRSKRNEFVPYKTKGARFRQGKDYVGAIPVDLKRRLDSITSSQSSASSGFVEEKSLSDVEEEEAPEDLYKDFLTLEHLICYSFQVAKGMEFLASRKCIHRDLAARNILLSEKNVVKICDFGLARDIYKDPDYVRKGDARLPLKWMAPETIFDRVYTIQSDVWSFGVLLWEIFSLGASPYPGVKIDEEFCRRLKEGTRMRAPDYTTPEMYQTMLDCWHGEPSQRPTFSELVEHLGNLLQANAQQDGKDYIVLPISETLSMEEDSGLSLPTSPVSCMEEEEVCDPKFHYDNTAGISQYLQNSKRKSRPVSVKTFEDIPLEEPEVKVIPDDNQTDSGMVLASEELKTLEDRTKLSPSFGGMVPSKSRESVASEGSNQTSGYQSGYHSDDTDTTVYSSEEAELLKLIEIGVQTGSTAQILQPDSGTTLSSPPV

11-(2-methylpropyl)-12,13-dihydro-2-methyl-8-(pyrimidin-2-ylamino)-4H-indazolo[5,4-a]pyrrolo[3,4-c]carbazol-4-one [CEP-11981]
Complete or partial response (RECIST) ([1]; all cohorts): no enrolled patients had complete or partial response
Frequency of stable disease ([1]; cohorts receiving ≤ 55.0 mg/m^2 (11 of 29 patients)): 37.9%
Frequency of stable disease ([1]; cohorts receiving ≥ 73.0 mg/m^2 (8 of 14 patients)): 57.1%
Patients with stable disease at ≥ 6 weeks ([1]; intent-to-treat population (19 of 43 patients)): 44%
Patients with disease progression [1, 3]: 18 patients
Patients with stable disease at ≥ 6 weeks [1, 3]: 51%
Patients with quintile 5 ex vivo VEGFR-2/KDR inhibition (VEGFR-2/KDR; 97.4 mg/m^2): 3 of 5
Patients with quintile 5 ex vivo VEGFR-2/KDR inhibition (VEGFR-2/KDR; 126.6 mg/m^2): 1 of 1
Inhibition of VEGFR-2/KDR kinase (VEGFR-2/KDR; plasma from lower dose cohorts (3.0, 4.2, 5.9, 11.8, and 19.7 mg/m^2), normalized to predose baseline): Less than 50%
Normalized mean cellular VEGFR-2/KDR inhibition (VEGFR-2/KDR; plasma primarily from 73.0, 97.4, and 126.6 mg/m^2 cohorts (quintile 5)): ≥ 81%
DLTs ([2]; 97.4 mg/m^2 cohort, n = 9): no DLTs were observed
Patients with DLTs ([2]; 126.6 mg/m^2 cohort, n = 2): 2 patients
Maximum-tolerated dose (MTD) ([2]; oral once daily, first 28 days of each 42-day cycle, patients with solid tumors): 97.4 mg/m^2
